In ChEMBL document CHEMBL1201862, “PubChem BioAssay data set” (2004):
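48-hour exposure; five concentrations; linearly interpolated endpoints. Abbreviation: GI50, concentration required for 50% inhibition of growth.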 The source made the active and inactive calls. No stated cut-off is given here; in the data, active = GI50 up to about 1.1 µM and inactive = higher.

Columns and labels:
Assay in all cases: NCI-60 cell line screen, 48 h
XF498 = system: XF498
DMS-273 = system: DMS-273
SF-295 = system: SF-295
MOLT-4 = system: MOLT-4
OVCAR-4 = system: OVCAR-4
SN12C = system: SN12C
M14 = system: M14
SK-MEL-28 = system: SK-MEL-28
SNB-75 = system: SNB-75
SNB-19 = system: SNB-19
RPMI-8226 = system: RPMI-8226
HOP-92 = system: HOP-92
HT-29 = system: HT-29
NCI-H23 = system: NCI-H23
OVCAR-3 = system: OVCAR-3
OVCAR-8 = system: OVCAR-8
786-0 = system: 786-0
HCT-116 = system: HCT-116
CCRF-CEM = system: CCRF-CEM
Malme-3M = system: Malme-3M
COLO 205 = system: COLO 205
SF-539 = system: SF-539
UACC-257 = system: UACC-257
HOP-18 = system: HOP-18
U-251 = system: U-251
EKVX = system: EKVX
ACHN = system: ACHN
HL-60 = system: HL-60
SF-268 = system: SF-268
SNB-78 = system: SNB-78
A549 = system: A549
K562 = system: K562
DMS-114 = system: DMS-114
UO-31 = system: UO-31
SK-OV-3 = system: SK-OV-3
SW-620 = system: SW-620
CAKI-1 = system: CAKI-1
NCI-H460 = system: NCI-H460
IGROV-1 = system: IGROV-1
OVCAR-5 = system: OVCAR-5
RXF 393 = system: RXF 393
DLD-1 = system: DLD-1
KM-20L2 = system: KM-20L2
SR = system: SR
HOP-62 = system: HOP-62
HCT-15 = system: HCT-15
NCI-H522 = system: NCI-H522
HCC 2998 = system: HCC 2998
A498 = system: A498
TK-10 = system: TK-10
M19-MEL = system: M19-MEL
SK-MEL-5 = system: SK-MEL-5
LXFL 529 = system: LXFL 529
UACC-62 = system: UACC-62
KM12 = system: KM12
SK-MEL-2 = system: SK-MEL-2
LOX IMVI = system: LOX IMVI
NCI-H226 = system: NCI-H226

## COc1ccc(CSc2nc3ccccc3nc2-c2cccs2)cc1
XF498
  GI50: > 100 µM (inactive)
DMS-273
  GI50: > 100 µM (inactive)
SF-295
  GI50: > 100 µM (inactive)
MOLT-4
  GI50: 56.2 µM (inactive)
OVCAR-4
  GI50: > 100 µM (inactive)
SN12C
  GI50: > 100 µM (inactive)
M14
  GI50: > 100 µM (inactive)
SK-MEL-28
  GI50: > 100 µM (inactive)
SNB-75
  GI50: > 100 µM (inactive)
SNB-19
  GI50: > 100 µM (inactive)
RPMI-8226
  GI50: > 100 µM (inactive)
HOP-92
  GI50: > 100 µM (inactive)
HT-29
  GI50: > 100 µM (inactive)
NCI-H23
  GI50: > 100 µM (inactive)
OVCAR-3
  GI50: > 100 µM (inactive)
OVCAR-8
  GI50: > 100 µM (inactive)
786-0
  GI50: > 100 µM (inactive)
HCT-116
  GI50: > 100 µM (inactive)
CCRF-CEM
  GI50: 15.2 µM (inactive)
Malme-3M
  GI50: > 100 µM (inactive)
COLO 205
  GI50: > 100 µM (inactive)
SF-539
  GI50: > 100 µM (inactive)
UACC-257
  GI50: 98.4 µM (inactive)
HOP-18
  GI50: > 100 µM (inactive)
U-251
  GI50: > 100 µM (inactive)
EKVX
  GI50: > 100 µM (inactive)
ACHN
  GI50: > 100 µM (inactive)
HL-60
  GI50: 26.4 µM (inactive)
SF-268
  GI50: > 100 µM (inactive)
SNB-78
  GI50: > 100 µM (inactive)
A549
  GI50: > 100 µM (inactive)
K562
  GI50: 30.7 µM (inactive)
DMS-114
  GI50: 76 µM (inactive)
UO-31
  GI50: > 100 µM (inactive)
SK-OV-3
  GI50: > 100 µM (inactive)

## CSc1nc2nc(C)c(C)nc2c(=O)[nH]1
XF498
  GI50: > 100 µM (inactive)
SW-620
  GI50: > 100 µM (inactive)
DMS-273
  GI50: > 100 µM (inactive)
CAKI-1
  GI50: > 100 µM (inactive)
NCI-H460
  GI50: > 100 µM (inactive)
SF-295
  GI50: > 100 µM (inactive)
MOLT-4
  GI50: 51.2 µM (inactive)
IGROV-1
  GI50: > 100 µM (inactive)
OVCAR-4
  GI50: > 100 µM (inactive)
SN12C
  GI50: > 100 µM (inactive)
M14
  GI50: > 100 µM (inactive)
SK-MEL-28
  GI50: > 100 µM (inactive)
SNB-75
  GI50: > 100 µM (inactive)
OVCAR-5
  GI50: > 100 µM (inactive)
SNB-19
  GI50: > 100 µM (inactive)
RXF 393
  GI50: > 100 µM (inactive)
RPMI-8226
  GI50: > 100 µM (inactive)
DLD-1
  GI50: > 100 µM (inactive)
HOP-92
  GI50: > 100 µM (inactive)
HT-29
  GI50: > 100 µM (inactive)
NCI-H23
  GI50: > 100 µM (inactive)
OVCAR-3
  GI50: > 100 µM (inactive)
OVCAR-8
  GI50: > 100 µM (inactive)
KM-20L2
  GI50: > 100 µM (inactive)
786-0
  GI50: > 100 µM (inactive)
SR
  GI50: > 100 µM (inactive)
HCT-116
  GI50: > 100 µM (inactive)
CCRF-CEM
  GI50: > 100 µM (inactive)
HOP-62
  GI50: > 100 µM (inactive)
HCT-15
  GI50: > 100 µM
Malme-3M
  GI50: > 100 µM (inactive)
NCI-H522
  GI50: > 100 µM (inactive)
COLO 205
  GI50: > 100 µM (inactive)
HCC 2998
  GI50: > 100 µM (inactive)
UACC-257
  GI50: > 100 µM (inactive)
A498
  GI50: > 100 µM (inactive)
TK-10
  GI50: > 100 µM (inactive)
HOP-18
  GI50: > 100 µM (inactive)
M19-MEL
  GI50: > 100 µM (inactive)
SK-MEL-5
  GI50: > 100 µM (inactive)
LXFL 529
  GI50: > 100 µM (inactive)
UACC-62
  GI50: > 100 µM (inactive)
U-251
  GI50: > 100 µM (inactive)
KM12
  GI50: > 100 µM (inactive)
EKVX
  GI50: > 100 µM (inactive)
SK-MEL-2
  GI50: > 100 µM (inactive)
ACHN
  GI50: > 100 µM (inactive)
LOX IMVI
  GI50: > 100 µM (inactive)
HL-60
  GI50: > 100 µM (inactive)
SF-268
  GI50: > 100 µM (inactive)
A549
  GI50: > 100 µM (inactive)
K562
  GI50: > 100 µM (inactive)
DMS-114
  GI50: > 100 µM (inactive)
UO-31
  GI50: > 100 µM (inactive)
SK-OV-3
  GI50: > 100 µM (inactive)

## COc1ccc2c(OC)c3ccoc3nc2c1O
XF498
  GI50: > 100 µM (inactive)
SW-620
  GI50: > 100 µM (inactive)
CAKI-1
  GI50: 93.3 µM (inactive)
NCI-H460
  GI50: 85.9 µM (inactive)
SF-295
  GI50: > 100 µM (inactive)
MOLT-4
  GI50: 42.2 µM (inactive)
IGROV-1
  GI50: > 100 µM (inactive)
OVCAR-4
  GI50: > 100 µM (inactive)
SN12C
  GI50: > 100 µM (inactive)
M14
  GI50: > 100 µM (inactive)
SK-MEL-28
  GI50: > 100 µM (inactive)
SNB-75
  GI50: 86.9 µM (inactive)
OVCAR-5
  GI50: > 100 µM (inactive)
SNB-19
  GI50: > 100 µM (inactive)
RPMI-8226
  GI50: 33.7 µM (inactive)
DLD-1
  GI50: 78.3 µM (inactive)
HT-29
  GI50: > 100 µM (inactive)
NCI-H23
  GI50: > 100 µM (inactive)
OVCAR-3
  GI50: > 100 µM (inactive)
OVCAR-8
  GI50: > 100 µM (inactive)
KM-20L2
  GI50: > 100 µM (inactive)
786-0
  GI50: > 100 µM (inactive)
HCT-116
  GI50: > 100 µM (inactive)
CCRF-CEM
  GI50: 43.3 µM (inactive)
HOP-62
  GI50: 49.2 µM (inactive)
HCT-15
  GI50: 37 µM
Malme-3M
  GI50: > 100 µM (inactive)
NCI-H522
  GI50: > 100 µM (inactive)
COLO 205
  GI50: > 100 µM (inactive)
HCC 2998
  GI50: > 100 µM (inactive)
SF-539
  GI50: > 100 µM (inactive)
UACC-257
  GI50: 39.5 µM (inactive)
A498
  GI50: > 100 µM (inactive)
TK-10
  GI50: > 100 µM (inactive)
HOP-18
  GI50: 0.114 µM (active)
M19-MEL
  GI50: 54.8 µM (inactive)
SK-MEL-5
  GI50: > 100 µM (inactive)
LXFL 529
  GI50: > 100 µM (inactive)
UACC-62
  GI50: 77.8 µM (inactive)
U-251
  GI50: > 100 µM (inactive)
KM12
  GI50: > 100 µM (inactive)
EKVX
  GI50: 53.8 µM (inactive)
SK-MEL-2
  GI50: > 100 µM (inactive)
ACHN
  GI50: > 100 µM (inactive)
SF-268
  GI50: > 100 µM (inactive)
SNB-78
  GI50: > 100 µM (inactive)
A549
  GI50: > 100 µM (inactive)
K562
  GI50: > 100 µM (inactive)
DMS-114
  GI50: > 100 µM (inactive)
UO-31
  GI50: 63.1 µM (inactive)
SK-OV-3
  GI50: > 100 µM (inactive)

## C#CCN1C(=O)CN2C(Cl)(Cl)C2(c2ccccc2)c2cc(Cl)ccc21 (stereo not drawn)
SW-620
  GI50: 70.3 µM (inactive)
DMS-273
  GI50: 41.7 µM (inactive)
CAKI-1
  GI50: 30.1 µM (inactive)
NCI-H460
  GI50: 54.8 µM (inactive)
SF-295
  GI50: 65.8 µM (inactive)
MOLT-4
  GI50: 25.1 µM (inactive)
OVCAR-4
  GI50: 72.1 µM (inactive)
SN12C
  GI50: 37.2 µM (inactive)
M14
  GI50: 49.1 µM (inactive)
SK-MEL-28
  GI50: > 100 µM (inactive)
SNB-75
  GI50: > 10 µM (inactive)
OVCAR-5
  GI50: > 100 µM (inactive)
RXF 393
  GI50: > 100 µM (inactive)
RPMI-8226
  GI50: 70.5 µM (inactive)
DLD-1
  GI50: 45.3 µM (inactive)
HOP-92
  GI50: 61.8 µM (inactive)
HT-29
  GI50: 40.9 µM (inactive)
NCI-H23
  GI50: 86.7 µM (inactive)
OVCAR-3
  GI50: 87.5 µM (inactive)
OVCAR-8
  GI50: > 100 µM (inactive)
KM-20L2
  GI50: 33.3 µM (inactive)
SR
  GI50: 40.3 µM (inactive)
HCT-116
  GI50: 42.2 µM (inactive)
CCRF-CEM
  GI50: 44.3 µM (inactive)
HOP-62
  GI50: 50 µM (inactive)
HCT-15
  GI50: 40.6 µM
Malme-3M
  GI50: > 100 µM (inactive)
NCI-H522
  GI50: 35.3 µM (inactive)
NCI-H226
  GI50: 39.7 µM (inactive)
COLO 205
  GI50: 54.5 µM (inactive)
HCC 2998
  GI50: 31.2 µM (inactive)
UACC-257
  GI50: 36.3 µM (inactive)
TK-10
  GI50: 89.9 µM (inactive)
HOP-18
  GI50: > 100 µM (inactive)
M19-MEL
  GI50: 84.3 µM (inactive)
SK-MEL-5
  GI50: 51.3 µM (inactive)
LXFL 529
  GI50: > 100 µM (inactive)
U-251
  GI50: > 10 µM (inactive)
KM12
  GI50: 28.6 µM (inactive)
EKVX
  GI50: 50.4 µM (inactive)
SK-MEL-2
  GI50: 94.4 µM (inactive)
ACHN
  GI50: 85.9 µM (inactive)
LOX IMVI
  GI50: 88.1 µM (inactive)
SF-268
  GI50: 82 µM (inactive)
K562
  GI50: 49.8 µM (inactive)
DMS-114
  GI50: 51.5 µM (inactive)
UO-31
  GI50: 68.1 µM (inactive)
